23 compounds from patent US12679848B2, “Plasma kallikrein inhibitors” (Merck Sharp & Dohme LLC, priority 2020, dated 2026) can be followed below.

The term IC50 denotes the concentration that gives 50% inhibition.

One experiment has as its target human factor XIa (Homo sapiens, UniProt P03951). In words: Factor XIa Assay. The experiment is classed as biochemical. The note with it: human factor XIa 0.04 nM, substrate GPR-AFC, 30 min pre-incubation, 25° C., pH 7.4; read-out: FXIa IC50.
A further experiment addresses T1, Human plasma kallikrein (Homo sapiens, UniProt P03952).
T1 construct: yields a heavy chain (371 amino acids) and a light chain (248 amino acids); The active site of plasma kallikrein is contained in the light chain; purchased Enzyme Research Laboratories
Kind of experiment: Plasma Kallikrein Assay. The experiment is classed as biochemical. The note with it: purified Human plasma kallikrein 0.5 nM, substrate Acetyl-K-P-R-AFC, HEPES pH 7.4; read-out: PKal IC50. In a few lines: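 Purified human plasma kallikrein at 0.5 nM final with substrate Acetyl-K-P-R-AFC at […], in 50 mM HEPES pH 7.4, 150 mM NaCl, 5 mM CaCl2, 0.1% PEG 8000, at rt or 37° C after enzyme-inhibitor equilibration. IC50 from four-parameter logistic fit of fluorescence rate; Ki via Cheng-Prusoff.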

T1 sequence (P03952 391-638 limits assumed): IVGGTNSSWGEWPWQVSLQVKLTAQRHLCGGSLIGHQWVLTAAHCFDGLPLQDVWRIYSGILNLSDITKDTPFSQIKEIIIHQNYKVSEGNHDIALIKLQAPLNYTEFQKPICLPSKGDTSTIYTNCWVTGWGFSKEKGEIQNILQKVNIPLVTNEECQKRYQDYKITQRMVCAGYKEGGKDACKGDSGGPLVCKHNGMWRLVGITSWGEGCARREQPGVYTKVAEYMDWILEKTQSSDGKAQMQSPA
T1 sequence (P03952 20-390 partner limits assumed): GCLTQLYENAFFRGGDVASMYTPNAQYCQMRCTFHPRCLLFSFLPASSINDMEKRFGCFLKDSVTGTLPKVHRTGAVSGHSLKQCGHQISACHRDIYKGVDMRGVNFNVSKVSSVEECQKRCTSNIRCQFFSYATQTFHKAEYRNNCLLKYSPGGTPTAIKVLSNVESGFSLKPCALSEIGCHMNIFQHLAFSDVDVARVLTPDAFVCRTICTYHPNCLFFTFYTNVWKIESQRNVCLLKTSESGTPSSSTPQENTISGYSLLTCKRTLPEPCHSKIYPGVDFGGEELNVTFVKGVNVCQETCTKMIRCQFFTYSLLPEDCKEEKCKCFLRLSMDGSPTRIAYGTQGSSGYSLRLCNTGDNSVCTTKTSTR
Sequence of human factor XIa (P03951 388-625 limits assumed): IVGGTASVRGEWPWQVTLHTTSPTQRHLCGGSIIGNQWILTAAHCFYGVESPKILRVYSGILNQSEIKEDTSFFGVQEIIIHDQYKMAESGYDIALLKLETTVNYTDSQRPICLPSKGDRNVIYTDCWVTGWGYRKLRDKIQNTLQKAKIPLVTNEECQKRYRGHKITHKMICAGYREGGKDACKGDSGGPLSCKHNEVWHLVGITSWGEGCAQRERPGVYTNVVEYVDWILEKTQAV
Sequence of human factor XIa (P03951 19-387 partner limits assumed): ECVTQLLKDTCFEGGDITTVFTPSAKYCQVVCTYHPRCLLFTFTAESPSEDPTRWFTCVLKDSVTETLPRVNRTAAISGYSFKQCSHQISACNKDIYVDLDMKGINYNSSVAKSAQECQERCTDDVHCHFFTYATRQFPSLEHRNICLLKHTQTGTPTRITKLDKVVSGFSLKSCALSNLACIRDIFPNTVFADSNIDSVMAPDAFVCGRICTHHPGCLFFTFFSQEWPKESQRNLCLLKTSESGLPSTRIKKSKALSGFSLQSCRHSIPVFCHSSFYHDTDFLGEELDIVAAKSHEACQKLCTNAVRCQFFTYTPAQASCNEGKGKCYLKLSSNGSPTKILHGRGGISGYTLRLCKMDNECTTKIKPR

Turning to `Nc1c(C(=O)N2CCC[C@@]3(C2)OC(=O)Nc2ccc(Cl)c(F)c23)cnn1-c1cccc(F)c1OC(F)F` [Example 107, (R)-1'-(5-Amino-1-(2-(difluoromethoxy)-3-fluorophenyl)-1H-pyrazole-4-carbonyl)-6-chloro-5-fluorospiro[benzo[d][1,3]oxazine-4,3'-piperidin]-2(1H)-one], the 50% inhibitory concentration (IC50) at human factor XIa was 461 nM; on Human plasma kallikrein, 15.2 nM.

With `Nc1c(C(=O)N2CCC[C@@]3(C2)OC(=O)Nc2ccc(Cl)c(F)c23)cnn1C(C1CC1)C(F)(F)F` (single isomer, unassigned) [Example 124, (R)-1'-(5-Amino-1-((R or S)-1-cyclopropyl-2,2,2-trifluoroethyl)-1H-pyrazole-4-carbonyl)-6-chloro-5-fluorospiro[benzo[d][1,3]oxazine-4,3'-piperidin]-2(1H)-one], the IC50 is 75 nM at human factor XIa and 1.4 nM on Human plasma kallikrein.

For the compound `CCC(c1ccccc1)n1ncc(C(=O)N2CCC[C@@]3(C2)OC(=O)Nc2ccc(Cl)c(F)c23)c1N` (single isomer, unassigned) [Example 116, (R)-1'-(5-Amino-1-((S or R)-1-phenylpropyl)-1H-pyrazole-4-carbonyl)-6-chloro-5-fluorospiro[benzo[d][1,3]oxazine-4,3'-piperidin]-2(1H)-one], the values for the IC50 on human factor XIa and on Human plasma kallikrein were 4 nM and 0.7 nM, respectively.

With `Nc1c(C(=O)N2CCC[C@@]3(C2)OC(=O)Nc2ccc(Cl)c(F)c23)cnn1C12CC(C1)C2` [Example 19, (R)-1'-(5-Amino-1-(bicyclo[1.1.1]pentan-1-y1)-1H-pyrazole-4-carbonyl)-6-chloro-5-fluorospiro[benzo[d][1,3]oxazine-4,3'-piperidin]-2(1H)-one], the IC50 was found to be 2940 nM on human factor XIa and 28.9 nM on Human plasma kallikrein.

Regarding `Nc1c(C(=O)N2CCC[C@@]3(C2)OC(=O)Nc2ccc(Cl)c(F)c23)cnn1Cc1ccc(F)c(F)c1` [Example 33, (R)-1'-(5-Amino-1-(3,4-difluorobenzy1)-1H-pyrazole-4-carbonyl)-6-chloro-5-fluorospiro[benzo[d][1,3]oxazine-4,3'-piperidin]-2(1H)-one], the IC50 at human factor XIa amounted to 438 nM; at Human plasma kallikrein, 1 nM.

`CCc1ccccc1-n1ncc(C(=O)N2CCC[C@@]3(C2)OC(=O)Nc2ccc(Cl)c(F)c23)c1N` [Example 80, (R)-1'-(5-Amino-1-(2-ethylphenyl)-1H-pyrazole-4-carbonyl)-6-chloro-5-fluorospiro[benzo[d][1,3]oxazine-4,3'-piperidin]-2(1H)-one]: the results for the concentration for half-maximal inhibition (IC50) at human factor XIa and on Human plasma kallikrein were 325 nM and 11.6 nM, respectively.

Turning to `Nc1c(C(=O)N2CCC[C@@]3(C2)OC(=O)Nc2ccc(Cl)c(F)c23)cnn1CC1CCOCC1` [Example 12, (R)-1'-(5-Amino-1-((tetrahydro-2H-pyran-4-yl)methyl)-1H-pyrazole-4-carbonyl)-6-chloro-5-fluorospiro[benzo[d][1,3]oxazine-4,3'-piperidin]-2(1H)-one], the concentration for half-maximal inhibition (IC50) was found to be 476 nM on human factor XIa and 8.1 nM on Human plasma kallikrein.

With `Nc1c(C(=O)N2CCC[C@@]3(C2)OC(=O)Nc2ccc(Cl)c(F)c23)cnn1Cc1ccccc1Cl` [Example 44, (R)-1'-(5-Amino-1-(2-chlorobenzyl)-1H-pyrazole-4-carbonyl)-6-chloro-5-fluorospiro[benzo[d][1,3]oxazine-4,3'-piperidin]-2(1H)-one], the figures for the half-inhibitory concentration (IC50) on human factor XIa and on Human plasma kallikrein were 251 nM and 1.1 nM, respectively.

With `Nc1c(C(=O)N2CCC[C@@]3(C2)OC(=O)Nc2ccc(Cl)c(F)c23)cnn1-c1cccc(Cl)c1` [Example 110, (R)-1'-(5-Amino-1-(3-chlorophenyl)-1H-pyrazole-4-carbonyl)-6-chloro-5-fluorospiro[benzo[d][1,3]oxazine-4,3'-piperidin]-2(1H)-one], the values for the IC50 on human factor XIa and on Human plasma kallikrein were above 10000 nM and 66.1 nM, respectively.

Turning to `Nc1c(C(=O)N2CCC[C@@]3(C2)OC(=O)Nc2ccc(Cl)c(F)c23)cnn1Cc1ccc(C(F)(F)F)nc1` [Example 43, (R)-1'-(5-Amino-1-((6-(trifluoromethyl)pyridin-3-yl)methyl)-1H-pyrazole-4-carbonyl)-6-chloro-5-fluorospiro[benzo[d][1,3]oxazine-4,3'-piperidin]-2(1H)-one], the IC50 worked out at 905 nM on human factor XIa and 8 nM at Human plasma kallikrein.

Turning to `Nc1c(C(=O)N2CCC[C@@]3(C2)OC(=O)Nc2ccc(Cl)c(F)c23)cnn1C1(C(F)(F)F)CC(F)(F)C1` [Example 52, (R)-1'-(5-Amino-1-(3,3-difluoro-1-(trifluoromethyl)cyclobutyl)-1H-pyrazole-4-carbonyl)-6-chloro-5-fluorospiro[benzo[d][1,3]oxazine-4,3'-piperidin]-2(1H)-one], the IC50 at human factor XIa was 978 nM; on Human plasma kallikrein, 9.1 nM.

For `Nc1c(C(=O)N2CCC[C@@]3(C2)OC(=O)Nc2ccc(Cl)c(F)c23)cnn1-c1ccc2cn[nH]c2c1` [Example 59, (R)-1'-(5-Amino-1-(1H-indazol-6-yl)-1H-pyrazole-4-carbonyl)-6-chloro-5-fluorospiro[benzo[d][1,3]oxazine-4,3'-piperidin]-2(1H)-one], the results for the IC50 at human factor XIa and at Human plasma kallikrein were 1160 nM and 25.7 nM, respectively.

With `Nc1c(C(=O)N2CCC[C@@]3(C2)OC(=O)Nc2ccc(Cl)c(F)c23)cnn1C(C1CC1)C(F)(F)F` (single isomer, unassigned) [Example 125, (R)-1'-(5-Amino-1-((S or R)-1-cyclopropyl-2,2,2-trifluoroethyl)-1H-pyrazole-4-carbonyl)-6-chloro-5-fluorospiro[benzo[d][1,3]oxazine-4,3'-piperidin]-2(1H)-one], the values for the IC50 at human factor XIa and at Human plasma kallikrein were 154 nM and 4.5 nM, respectively.

For `Nc1c(C(=O)N2CCC[C@@]3(C2)OC(=O)Nc2ccc(Cl)c(F)c23)cnn1C1(c2ccc(F)cc2)CCC1` [Example 46, (R)-1'-(5-Amino-1-(1-(4-fluorophenyl)cyclobutyl)-1H-pyrazole-4-carbonyl)-6-chloro-5-fluorospiro[benzo[d][1,3]oxazine-4,3'-piperidin]-2(1H)-one], the IC50 on human factor XIa worked out at 167 nM; on Human plasma kallikrein, 1.2 nM.

`COC(=O)c1ccc(-n2ncc(C(=O)N3CCC[C@@]4(C3)OC(=O)Nc3ccc(Cl)c(F)c34)c2N)c(OC)c1` [Example 92, Methyl (R)-4-(5-amino-4-(6-chloro-5-fluoro-2-oxo-1,2-dihydrospiro[benzo[d][1,3]oxazine-4,3'-piperidine]-l'-carbonyl)-1H-pyrazol-1-yl)-3-methoxybenzoate]: the figures for the IC50 on human factor XIa and on Human plasma kallikrein were 1710 nM and 13.2 nM, respectively.

`CC(C)n1ncc(C(=O)N2CCC[C@@]3(C2)OC(=O)Nc2ccc(Cl)c(F)c23)c1N` [Example 34, (R)-1'-(5-Amino-1-isopropyl-1H-pyrazole-4-carbonyl)-6-chloro-5-fluorospiro[benzo[d][1,3]oxazine-4,3'-piperidin]-2(1H)-one]: the figures for the 50% inhibitory concentration (IC50) at human factor XIa and on Human plasma kallikrein were 1200 nM and 8.9 nM, respectively.

As for `Nc1c(C(=O)N2CCC[C@@]3(C2)OC(=O)Nc2ccc(Cl)c(F)c23)cnn1CC1CC1` [Example 13, (R)-1'-(5-Amino-1-(cyclopropylmethyl)-1H-pyrazole-4-carbonyl)-6-chloro-5-fluorospiro[benzo[d][1,3]oxazine-4,3'-piperidin]-2(1H)-one], the values for the IC50 at human factor XIa and on Human plasma kallikrein were 582 nM and 7.2 nM, respectively.

Consider `Nc1c(C(=O)N2CCC[C@@]3(C2)OC(=O)Nc2ccc(Cl)c(F)c23)cnn1-c1ccccc1C(F)(F)F` [Example 77, (R)-1'-(5-Amino-1-(2-(trifluoromethyl)phenyl)-1H-pyrazole-4-carbonyl)-6-chloro-5-fluorospiro[benzo[d][1,3]oxazine-4,3'-piperidin]-2(1H)-one], for which the IC50 turned out to be 399 nM at human factor XIa and 17.3 nM at Human plasma kallikrein.

Consider `Cc1c(CO)cccc1-n1ncc(C(=O)N2CCC[C@@]3(C2)OC(=O)Nc2ccc(Cl)c(F)c23)c1N` [Example 63, (R)-1'-(5-Amino-1-(3-(hydroxymethyl)-2-methylphenyl)-1H-pyrazole-4-carbonyl)-6-chloro-5-fluorospiro[benzo[d][1,3]oxazine-4,3'-piperidin]-2(1H)-one], for which the IC50 on human factor XIa stood at 1580 nM; at Human plasma kallikrein it was 29 nM.

Consider `CC(C)c1ccccc1-n1ncc(C(=O)N2CCC[C@@]3(C2)OC(=O)Nc2ccc(Cl)c(F)c23)c1N` [Example 81, (R)-1'-(5-Amino-1-(2-isopropylphenyl)-1H-pyrazole-4-carbonyl)-6-chloro-5-fluorospiro[benzo[d][1,3]oxazine-4,3'-piperidin]-2(1H)-one], for which the IC50 worked out at 353 nM at human factor XIa and 5.5 nM on Human plasma kallikrein.

On to `COc1cc(F)ccc1-n1ncc(C(=O)N2CCC[C@@]3(C2)OC(=O)Nc2ccc(Cl)c(F)c23)c1N` [Example 100, (R)-1'-(5-Amino-1-(4-fluoro-2-methoxyphenyl)-1H-pyrazole-4-carbonyl)-6-chloro-5-fluorospiro[benzo[d][1,3]oxazine-4,3'-piperidin]-2(1H)-one], for which the IC50 at human factor XIa stood at 375 nM; at Human plasma kallikrein, 9 nM.

On to `Nc1c(C(=O)N2CCC[C@@]3(C2)OC(=O)Nc2ccc(Cl)c(F)c23)cnn1C(c1ccccc1)C(F)(F)F` (single isomer, unassigned) [Example 123], for which the IC50 at human factor XIa came out at 74 nM; on Human plasma kallikrein, 0.9 nM.

For the compound `Nc1c(C(=O)N2CCC[C@@]3(C2)OC(=O)Nc2ccc(Cl)c(F)c23)cnn1C1CCCCC1` [Example 35, (R)-1'-(5-Amino-1-cyclohexyl-1H-pyrazole-4-carbonyl)-6-chloro-5-fluorospiro[benzo[d][1,3]oxazine-4,3'-piperidin]-2(1H)-one], the concentration for half-maximal inhibition (IC50) at human factor XIa was determined as 1080 nM; on Human plasma kallikrein, 15.7 nM.
